pIC50: −log10 of the molar value.
Legend:
[1] = system: PBMCs; assay: IFN gamma release in CD3/CD28 stimulated PBMC cells (assay c); format: cell-based; settings: Homo sapiens, read-out: IC50 Values for Inhibition of Cytokine Release, PBMCs IFNγ
Procedure, shortened: (§1)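 Healthy-donor PBMCs, isolated by density gradient, were plated in wells pre-coated with anti-CD3 (0.3 μg/mL) and anti-CD28 (3 μg/mL) antibodies, then exposed to compound for 3 days under normal culture conditions. IL-2 and IFN gamma in supernatants were measured by sandwich ELISA; IC50 taken from the dose-response curve.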

[2] = molecular target: Syk (Homo sapiens (Human), UniProt P43405); assay: Syk enzyme inhibition (FRET, Z-LYTE); format: biochemical
Procedure, shortened: (§2)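 Fluorescence-ratio kinase assay: 2 hr compound–enzyme preincubation at RT, 1 hr reaction with ATP added as 800 μM (c-Src) or 60 μM (Syk) solution. IC50 derived from percent inhibition curves.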

[3] = system: PBMCs; assay: LPS-induced IL-8 release in PBMC cells (assay b); format: cell-based, human; settings: Homo sapiens, PBMC; LPS-stimulated PBMCs; read-out: IC50 Values for Inhibition of Cytokine Release, PBMCs IL-8
Procedure, shortened: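 Human PBMCs from healthy donors, isolated by density gradient, were pretreated with compound for 2 h and then stimulated with 1 ng/mL LPS (E. coli 0111:B4) for 24 h at 37° C, 5% CO2. Supernatant IL-8 and TNFα were measured by sandwich ELISA, and IC50 was taken from the dose-response curve.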

[4] = system: d-U937 cells; assay: Accumulation of β catenin in d-U937 cells (assay m); format: cell-based, human; settings: percentage relative to Reference Compound at 1 μg/mL
Procedure, shortened: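 PMA-differentiated (100 ng/mL, 48–72 hr) human U937 macrophage-type cells treated with test compound or vehicle for 18 hr. β-catenin measured by in-cell ELISA (anti-β-catenin, HRP secondary, TMB, OD450–655). Signal corrected for cell number by dividing by crystal violet OD595.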

[5] = molecular target: GSK 3α (Homo sapiens (Human), UniProt P49840); assay: GSK 3α enzyme inhibition (FRET, Z-LYTE, Method 2); format: biochemical; settings: read-out: IC50 Values for Enzyme Inhibition, GSK3α
GSK 3α, sequence (P49840 whole entry): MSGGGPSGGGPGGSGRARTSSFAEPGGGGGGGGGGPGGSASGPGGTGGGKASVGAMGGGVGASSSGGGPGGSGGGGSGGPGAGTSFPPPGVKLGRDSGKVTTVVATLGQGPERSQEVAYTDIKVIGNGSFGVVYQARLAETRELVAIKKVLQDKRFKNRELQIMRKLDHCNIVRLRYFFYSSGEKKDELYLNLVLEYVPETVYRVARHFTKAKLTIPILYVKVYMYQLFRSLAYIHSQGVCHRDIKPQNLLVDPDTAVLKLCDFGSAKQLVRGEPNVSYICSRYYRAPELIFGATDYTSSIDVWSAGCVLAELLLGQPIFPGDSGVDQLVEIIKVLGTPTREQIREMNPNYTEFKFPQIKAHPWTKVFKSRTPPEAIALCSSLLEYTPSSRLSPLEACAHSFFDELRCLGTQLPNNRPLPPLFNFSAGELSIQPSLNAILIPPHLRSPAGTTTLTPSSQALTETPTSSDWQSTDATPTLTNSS
Procedure, shortened: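 Recombinant human GSK3α was preincubated with compound (stocks 4, 0.4, 0.04 or 0.004 μg/mL) at RT, 2 hr for Method 1 and 105 min for Method 2. FRET peptide (8 μM stock) and ATP (40 μM stock) were added for 1 hr, then protease development for 1 hr. IC50 was taken from concentration–response curves.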

[6] = molecular target: c-Src (Homo sapiens (Human), UniProt P12931); assay: c-Src enzyme inhibition (FRET, Z-LYTE); format: biochemical
c-Src, sequence (P12931 whole entry, looked up): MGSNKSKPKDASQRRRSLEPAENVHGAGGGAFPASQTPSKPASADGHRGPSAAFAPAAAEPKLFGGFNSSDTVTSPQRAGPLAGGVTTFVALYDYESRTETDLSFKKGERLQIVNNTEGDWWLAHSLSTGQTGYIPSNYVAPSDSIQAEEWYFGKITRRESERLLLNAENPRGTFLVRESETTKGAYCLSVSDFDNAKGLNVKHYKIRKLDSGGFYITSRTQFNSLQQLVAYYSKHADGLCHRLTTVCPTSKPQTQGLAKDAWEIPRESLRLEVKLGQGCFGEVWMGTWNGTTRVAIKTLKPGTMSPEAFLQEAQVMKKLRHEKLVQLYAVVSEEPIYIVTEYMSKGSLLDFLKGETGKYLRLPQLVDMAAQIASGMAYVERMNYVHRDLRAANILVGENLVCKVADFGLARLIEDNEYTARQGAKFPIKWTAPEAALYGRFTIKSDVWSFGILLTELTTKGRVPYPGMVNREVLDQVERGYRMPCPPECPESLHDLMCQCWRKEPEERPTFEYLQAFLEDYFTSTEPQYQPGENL
Procedure, shortened: as §2

[7] = system: PBMCs; assay: IL-2 release in CD3/CD28 stimulated PBMC cells (assay c); format: cell-based; settings: Homo sapiens, read-out: IC50 Values for Inhibition of Cytokine Release, PBMCs IL-2
Procedure, shortened: as §1

Work on `COc1c(CS(C)(=O)=O)cc(C(C)(C)C)cc1NC(=O)Nc1ccc(Oc2ccnc(Nc3ccccc3)c2)c2ccccc12` [Example 19, 1-(5-(tert-Butyl)-2-methoxy-3-((methylsulfonyl)methyl)phenyl)-3-(4-((2-(phenylamino)pyridin-4-yl)oxy)naphthalen-1-yl)urea] yielded a pIC50 [1] of 7.57, a pIC50 [2] of 6.72 and a pIC50 [3] of 8.21. The “% β-catenin induction” value ([4]; test compound 1 μg/mL) was 2.5%, the “% β-catenin induction” value ([4]; test compound 5 μg/mL) was 9.0% and the “% β-catenin induction” value ([4]; test compound 10 μg/mL) was 13.0%. For the same compound, the pIC50 [5] was < 4.80, the pIC50 [6] was 6.84 and the pIC50 [7] was 6.59.

`COc1cc(Nc2nccc(Oc3ccc(NC(=O)Nc4cc(C(C)(C)C)cc(OCP(C)(C)=O)c4OC)c4ccccc34)n2)cc(OC)c1` [Example 20, 1-(5-(tert-Butyl)-3-((dimethylphosphoryl)methoxy)-2-methoxyphenyl)-3-(4-((2-((3,5-dimethoxyphenyl)amino)pyrimidin-4-yl)oxy)naphthalen-1-yl)urea] showed a pIC50 [1] of 8.10, a pIC50 [2] of 6.73 and a pIC50 [3] of 8.60. The “% β-catenin induction” value ([4]; test compound 1 μg/mL) was 2.5%, the “% β-catenin induction” value ([4]; test compound 5 μg/mL) was 20.5% and the “% β-catenin induction” value ([4]; test compound 10 μg/mL) was 16.5%. For the same compound, the pIC50 [5] was 5.69, the pIC50 [6] was 7.48 and the pIC50 [7] was 7.98.

For `COc1c(CP(C)(C)=O)cc(C(C)(C)C)cc1NC(=O)Nc1ccc(Oc2ccnc(Nc3ccccc3)c2)c2ccccc12` [Example 24, 1-(5-(tert-Butyl)-3-((dimethylphosphoryl)methyl)-2-methoxyphenyl)-3-(4-((2-(phenylamino)-pyridin-4-yl)oxy)naphthalen-1-yl)urea], the pIC50 [1] was 7.19, the pIC50 [2] was 6.54 and the pIC50 [3] was 8.51. For the same compound, the “% β-catenin induction” value ([4]; test compound 1 μg/mL) was −3.0%, the “% β-catenin induction” value ([4]; test compound 5 μg/mL) was 13.0% and the “% β-catenin induction” value ([4]; test compound 10 μg/mL) was 16.5%. It also gave a pIC50 [5] of 5.13, a pIC50 [6] of 6.77 and a pIC50 [7] of 6.56.

With `COc1c(C[S+](C)[O-])cc(C(C)(C)C)cc1NC(=O)Nc1ccc(Oc2ccnc(Nc3ccccc3)c2)c2ccccc12` (stereo not drawn) [Example 25, 1-(5-(tert-Butyl)-2-methoxy-3-((methylsulfinyl)methyl)phenyl)-3-(4-((2-(phenylamino)pyridin-4-yl)oxy)naphthalen-1-yl)urea] the pIC50 [1] was 7.53, the pIC50 [2] was 6.14 and the pIC50 [3] was 8.28. For the same compound, the “% β-catenin induction” value ([4]; test compound 1 μg/mL) was 1.0%, the “% β-catenin induction” value ([4]; test compound 5 μg/mL) was 8.0% and the “% β-catenin induction” value ([4]; test compound 10 μg/mL) was 17.5%. For the same compound, the pIC50 [5] was 5.02, the pIC50 [6] was 6.65 and the pIC50 [7] was 6.76.

`COc1c(NC(=O)Nc2ccc(Oc3ccnc(Nc4cc(C)cc(C)c4)c3)c3ccccc23)cc(C(C)(C)C)cc1P(C)(C)=O` [Example 28, 1-(5-(tert-Butyl)-3-(dimethylphosphoryl)-2-methoxyphenyl)-3-(4-((2-((3,5-dimethylphenyl)-amino)pyridin-4-yl)oxy)naphthalen-1-yl)urea] was tested, and the pIC50 [1] was 8.85, the pIC50 [2] was 6.80 and the pIC50 [3] was 8.60. The “% β-catenin induction” value ([4]; test compound 1 μg/mL) was 3.0%, the “% β-catenin induction” value ([4]; test compound 5 μg/mL) was 6.7% and the “% β-catenin induction” value ([4]; test compound 10 μg/mL) was 11.3%. It also gave a pIC50 [5] of 5.08, a pIC50 [6] of 7.32 and a pIC50 [7] of 7.20.

`COc1cc(Nc2cc(Oc3ccc(NC(=O)Nc4cc(C(C)(C)C)cc(CC(N)=O)c4OC)c4ccccc34)ccn2)cc(OC)c1` [Example 30, 2-(5-(tert-Butyl)-3-(3-(4-((2-((3,5-dimethoxyphenyl)amino)pyridin-4-yl)oxy)naphthalen-1-yl)ureido)-2-methoxyphenyl)acetamide] was tested, and the pIC50 [1] was 8.19, the pIC50 [2] was 6.15 and the pIC50 [3] was 8.77. The “% β-catenin induction” value ([4]; test compound 1 μg/mL) was 6.5%, the “% β-catenin induction” value ([4]; test compound 5 μg/mL) was 23.5% and the “% β-catenin induction” value ([4]; test compound 10 μg/mL) was 1.0%. The pIC50 [5] was < 4.81, the pIC50 [6] was 7.22 and the pIC50 [7] was 7.02.

`COc1cccc(Nc2cc(Oc3ccc(NC(=O)Nc4cc(C(C)(C)C)cc(CC(N)=O)c4OC)c4ccccc34)ccn2)c1` [Example 33, 2-(5-(tert-Butyl)-2-methoxy-3-(3-(4-((2-((3-methoxyphenyl)amino)pyridin-4-yl)oxy)naphthalen-1-yl)ureido)phenyl)acetamide] gave a pIC50 [1] of 7.96, a pIC50 [2] of 6.28 and a pIC50 [3] of 8.77. For the same compound, the “% β-catenin induction” value ([4]; test compound 1 μg/mL) was −1.0%, the “% β-catenin induction” value ([4]; test compound 5 μg/mL) was 3.5% and the “% β-catenin induction” value ([4]; test compound 10 μg/mL) was 9.5%. It also gave a pIC50 [5] of 4.98, a pIC50 [6] of 7.20 and a pIC50 [7] of 6.93.

`COc1c(CNC(C)=O)cc(C(C)(C)C)cc1NC(=O)Nc1ccc(Oc2ccnc(Nc3ccccc3)c2)c2ccccc12` [Example 35, N-(5-(tert-Butyl)-2-methoxy-3-(3-(4-((2-(phenylamino)pyridin-4-yl)oxy)naphthalen-1-yl)ureido)benzyl)acetamide] showed a pIC50 [1] of 7.96, a pIC50 [2] of 6.43 and a pIC50 [3] of 8.47. The “% β-catenin induction” value ([4]; test compound 1 μg/mL) was 5.5%, the “% β-catenin induction” value ([4]; test compound 5 μg/mL) was 16.5% and the “% β-catenin induction” value ([4]; test compound 10 μg/mL) was 23.5%. For the same compound, the pIC50 [5] was < 4.93, the pIC50 [6] was 6.95 and the pIC50 [7] was 6.66.

For `COc1cc(Nc2cc(Oc3ccc(NC(=O)Nc4cc(C(C)(C)C)cc(P(C)(C)=O)c4OC)c4ccccc34)ccn2)cc(C(N)=O)c1` [Example 37, 3-((4-((4-(3-(5-(tert-butyl)-3-(dimethylphosphoryl)-2-methoxyphenyl)ureido)-naphthalen-1-yl)oxy)pyridin-2-yl)amino)-5-methoxybenzamide], the pIC50 [1] was 9.15, the pIC50 [2] was 6.46 and the pIC50 [3] was 8.77. The “% β-catenin induction” value ([4]; test compound 1 μg/mL) was 2.0%, the “% β-catenin induction” value ([4]; test compound 5 μg/mL) was 15.5% and the “% β-catenin induction” value ([4]; test compound 10 μg/mL) was 25.5%. For the same compound, the pIC50 [5] was 5.67, the pIC50 [6] was 7.49 and the pIC50 [7] was 7.32.

For `COc1cc(Nc2cc(Oc3ccc(NC(=O)Nc4cc(C(C)(C)C)cc([S+](C)[O-])c4OC)c4ccccc34)ccn2)cc(OC)c1` (stereo not drawn) [Example 40, 1-(5-(tert-Butyl)-2-methoxy-3-(methylsulfinyl)phenyl)-3-(4-((2-((3,5-dimethoxyphenyl)amino)pyridin-4-yl)oxy)naphthalen-1-yl)urea], the pIC50 [1] was 8.28, the pIC50 [2] was 6.70 and the pIC50 [3] was 8.57. The “% β-catenin induction” value ([4]; test compound 1 μg/mL) was −2.0%, the “% β-catenin induction” value ([4]; test compound 5 μg/mL) was −2.0% and the “% β-catenin induction” value ([4]; test compound 10 μg/mL) was −0.5%. The pIC50 [5] was < 4.82, the pIC50 [6] was 7.11 and the pIC50 [7] was 6.75.

`COc1cccc(Nc2cc(Oc3ccc(NC(=O)Nc4cc(C(C)(C)C)cc([S+](C)[O-])c4OC)c4ccccc34)ccn2)c1` (stereo not drawn) [Example 41, 1-(5-(tert-Butyl)-2-methoxy-3-(methylsulfinyl)phenyl)-3-(4-((2-((3-methoxyphenyl)amino)pyridin-4-yl)oxy)naphthalen-1-yl)urea] showed a pIC50 [1] of 8.16, a pIC50 [2] of 6.61 and a pIC50 [3] of 8.54. The “% β-catenin induction” value ([4]; test compound 1 μg/mL) was −1.0%, the “% β-catenin induction” value ([4]; test compound 5 μg/mL) was −1.5% and the “% β-catenin induction” value ([4]; test compound 10 μg/mL) was 1.5%. The pIC50 [5] was 4.99, the pIC50 [6] was 7.14 and the pIC50 [7] was 6.73.

Work on `COc1cccc(Nc2cc(Oc3ccc(NC(=O)Nc4cc(C(C)(C)C)cc(CNC(C)=O)c4OC)c4ccccc34)ccn2)c1` [Example 43, N-(5-(tert-Butyl)-2-methoxy-3-(3-(4-((2-((3-methoxyphenyl)amino)pyridin-4-yl)oxy)naphthalen-1-yl)ureido)benzyl)acetamide] yielded a pIC50 [1] of 8.55, a pIC50 [2] of 6.88 and a pIC50 [3] of 8.85. The “% β-catenin induction” value ([4]; test compound 1 μg/mL) was 7.5%, the “% β-catenin induction” value ([4]; test compound 5 μg/mL) was 19.5% and the “% β-catenin induction” value ([4]; test compound 10 μg/mL) was 20.5%. It also gave a pIC50 [5] of 5.11, a pIC50 [6] of 7.27 and a pIC50 [7] of 7.52.

With `COc1cc(Nc2cc(Oc3ccc(NC(=O)Nc4cc(C(C)(C)C)cc(CNC(C)=O)c4OC)c4ccccc34)ccn2)cc(OC)c1` [Example 44, N-(5-(tert-Butyl)-3-(3-(4-((2-((3,5-dimethoxyphenyl)amino)pyridin-4-yl)oxy)naphthalen-1-yl)ureido)-2-methoxybenzyl)acetamide] the pIC50 [1] was 8.64, the pIC50 [2] was 7.02 and the pIC50 [3] was 8.89. For the same compound, the “% β-catenin induction” value ([4]; test compound 1 μg/mL) was 5.0%, the “% β-catenin induction” value ([4]; test compound 5 μg/mL) was 8.0% and the “% β-catenin induction” value ([4]; test compound 10 μg/mL) was 11.0%. The pIC50 [5] was < 4.82, the pIC50 [6] was 7.17 and the pIC50 [7] was 7.55.

— patent US9890185B2, “Urea derivatives useful as kinase inhibitors” (Respivert Limited, priority 2013, dated 2018)
